In US12239133B2, “Herbicidal composition” (ISHIHARA SANGYO KAISHA, LTD., priority 2019, dated 2025):

How the values were obtained:
Format in all cases: in vivo
[1] = test system: velvetleaf (Abutilon theophrasti Medik.); assay: Example 3: pot test, foliar treatment of velvetleaf, pyroxsulam versus penoxsulam
Description: (§1) Upland field soil was put into a 1/1,000,000 hectare pot, and seeds of velvetleaf (Abutilon theophrasti Medik.) were sown. […] Further, the growth inhibition rate (expected value) was calculated in accordance with the Colby's formula.

[2] = test system: velvetleaf (Abutilon theophrasti Medik.); assay: Example 2: pot test, foliar treatment of velvetleaf, visual growth inhibition rate; conditions: 15th day after foliar treatment
Description: as §1

[3] = test system: velvetleaf (Abutilon theophrasti Medik.); assay: Example 1: pot test, foliar treatment of velvetleaf, visual growth inhibition rate; conditions: 12th day after foliar treatment
Description: as §1

## COc1cnc(OC)n2nc(NS(=O)(=O)c3c(OCC(F)F)cccc3C(F)(F)F)nc12 [Penoxsulam, penoxsulam]
[1]; Abutilon theophrasti, dose 0.5 g/ha, 8th day after foliar treatment, read-out: Growth inhibition rate (%) Measured value (A)
  inhibition at 0.5 g/ha: 0%
[1]; Abutilon theophrasti, dose 0.75 g/ha, 8th day after foliar treatment, read-out: Growth inhibition rate (%) Measured value (A)
  inhibition at […]: 0%
[1]; Abutilon theophrasti, dose 3 g/ha, 8th day after foliar treatment, read-out: Growth inhibition rate (%) Measured value (A)
  inhibition at 3 g/ha: 37%
[1]; combined with tolpyralate, summary in words of Table 3, 8th day
  grow inhibition compared with expected (Colby): a grow inhibition rate more than expected was not obtained

## COc1cc(OC)n2nc(NS(=O)(=O)c3c(C(F)(F)F)ccnc3OC)nc2n1 [Pyroxsulam, pyroxsulam]
[2]; dose 0.125 g/ha
  Growth inhibition rate (%) Measured value (A): 0%
[2]; dose 0.25 g/ha
  Growth inhibition rate (%) Measured value (A): 0%
[2]; dose 0.5 g/ha
  Growth inhibition rate (%) Measured value (A): 0%
[2]; dose 3 g/ha
  Growth inhibition rate (%) Measured value (A): 20%
[2]; dose 4 g/ha
  Growth inhibition rate (%) Measured value (A): 30%
[2]; dose 5 g/ha
  Growth inhibition rate (%) Measured value (A): 33%
[2]; dose 6 g/ha
  Growth inhibition rate (%) Measured value (A): 35%
[3]; dose 0.5 g/ha
  Growth inhibition rate (%) Measured value (A): 2%
[3]; dose 1.5 g/ha
  Growth inhibition rate (%) Measured value (A): 17%
[3]; dose 2.25 g/ha
  Growth inhibition rate (%) Measured value (A): 25%
[3]; dose 3 g/ha
  Growth inhibition rate (%) Measured value (A): 27%
[1]; dose 0.5 g/ha, 8th day after foliar treatment
  Growth inhibition rate (%) Measured value (A): 0%
[1]; dose 3 g/ha, 8th day after foliar treatment
  Growth inhibition rate (%) Measured value (A): 32%

## CCn1ncc(C(=O)c2ccc(S(C)(=O)=O)c(OCCOC)c2C)c1OC(C)OC(=O)OC (stereo not drawn) [Tolpyralate, tolpyralate]
[2]; dose 2.5 g/ha
  Growth inhibition rate (%) Measured value (A): 37%
[3]; dose 2.5 g/ha
  Growth inhibition rate (%) Measured value (A): 20%
[3]; dose 3.75 g/ha
  Growth inhibition rate (%) Measured value (A): 27%
[1]; dose 2.5 g/ha, 8th day after foliar treatment
  Growth inhibition rate (%) Measured value (A): 10%
